Target: T1, human PAD4 (Homo sapiens, UniProt Q9UM07)
T1 construct: human PAD4 (NM_012387), A2-P663, was PCR amplified; His-SUMO (N, cleaved yes); made in house; host or cells: E. coli BL21(DE3)
Assay: In vitro PAD4 BAEE biochemical assay
Details: BAEE substrate 3 mM, 5 nM PAD4, 2 mM calcium chloride; geometric mean of multiple experiments
Method in brief: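 Ammonia produced by BAEE deimination (3 mM substrate, 2 h, 25 °C) was read as fluorescent isoindole after o-phthalaldehyde/DTT derivatization, ex 405 nm/em 535 nm. Human PAD4 at 5 nM final, 2 mM calcium, pH 7.6 MOPS; compound preincubated 30 min. IC50s, normalized to BB-Cl-Amidine and DMSO controls, were geometric-mean averaged.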

T1 sequence (Q9UM07 2-663): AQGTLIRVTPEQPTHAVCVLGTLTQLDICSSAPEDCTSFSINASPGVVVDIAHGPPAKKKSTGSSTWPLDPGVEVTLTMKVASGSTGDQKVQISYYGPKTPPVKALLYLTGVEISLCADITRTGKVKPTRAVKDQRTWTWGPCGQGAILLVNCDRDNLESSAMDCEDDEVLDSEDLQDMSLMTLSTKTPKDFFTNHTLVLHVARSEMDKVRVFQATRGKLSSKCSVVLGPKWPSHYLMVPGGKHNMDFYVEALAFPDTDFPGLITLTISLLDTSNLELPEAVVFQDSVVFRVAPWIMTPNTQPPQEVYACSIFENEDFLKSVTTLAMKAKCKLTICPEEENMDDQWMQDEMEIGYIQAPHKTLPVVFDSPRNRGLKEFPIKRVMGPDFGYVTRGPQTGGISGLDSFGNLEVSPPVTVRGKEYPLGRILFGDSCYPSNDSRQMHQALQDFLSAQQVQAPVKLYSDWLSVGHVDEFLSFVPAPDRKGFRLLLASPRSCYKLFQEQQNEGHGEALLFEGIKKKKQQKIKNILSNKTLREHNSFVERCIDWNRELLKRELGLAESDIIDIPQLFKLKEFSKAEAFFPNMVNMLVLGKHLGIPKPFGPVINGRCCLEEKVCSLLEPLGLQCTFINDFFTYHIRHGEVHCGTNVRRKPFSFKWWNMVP

| IC50 | SMILES |
| --- | --- |
| 47 nM | CO[C@@H]1CCCCC(F)(F)Cn2c(-c3nc4cc(C(=O)N[C@H]5CNCC[C@@H]5F)c(F)cc4n3C)cc3ccc(nc32)[C@@H](C)NC1=O [Example 623, 2-[(8~{R},11~{R})-3,3-difluoro-8-methoxy-11-methyl-9-oxo-1,10,19-triazatricyclo[10.5.2.0^ {15,18}]nonadeca-12(19),13,15(18),16-tetraen-17-yl]-6-fluoro-~{N}-[(3~{S}, 4~{S})-4-fluoro-3-piperidyl]-1-methyl-benzimidazole-5-carboxamide] |
| 44 nM | COc1cc(C(=O)N2CC[C@@H](OC)[C@@H](N)C2)cc2nc(-c3cc4ccc5nc4n3CCCCCCC(c3ccccn3)C(=O)N[C@@H]5C)n(C)c12 (stereo partly drawn) [Example 860, (11~{R})-17-[5-[(3~{S),4~{R})-3-amino-4-methoxy-piperidine-1-carbonyl]-7-methoxy-1-methyl-benzimidazol-2-yl]-11-methyl-8-(2-pyridyl)-1,10,19-triazatricyclo [10.5.2.0^{15,18}]nonadeca-12(19),13,15(18),16-tetraen-9-one] |
| 13 nM | COc1cc(C(=O)N2CCC[C@@H](N)C2)cc2nc(-c3cc4ccc5nc4n3CCCCCCCC(=O)N[C@@H]5C)n(C)c12 [Example 282, (11~{R})-17-[5-[(3~{R})-3-aminopiperidine-1-carbonyl]-7-methoxy-1-methyl-benzimidazol-2-yl]-11-methyl-1,10,19-triazatricyclo[10.5.2.0^{15,18}]nonadeca-12(19),13,15(18),16-tetraen-9-one] |
| 26 nM | C[C@H]1NC(=O)[C@@H]2C[C@H]2CCCCCn2c(-c3nc4cc(C(=O)N[C@H]5CNC[C@H]6C[C@H]65)c(F)cc4n3C3CC3)cc3ccc1nc32 [Example 575, ~{N}-[(1~{S),5~{R},6~{R})-3-azabicyclo[4.1.0]heptan-5-yl]-1-cyclopropyl-6-fluoro-2-[(2~{R},5~{R},7~{R})-2-methyl-4-oxo-3,13,19-triazatetracyclo[11.5.2.0^ {5,7}.0^{16,20}]icosa-1(19),14,16(20),17-tetraen-14-yl]benzimidazole-5-carboxamide] |
| 31 nM | CO[C@@H]1CCN(C(=O)c2cc(F)c3c(c2)nc(-c2cc4ccc5nc4n2CCCCC[C@]2(F)C[C@H]2C(=O)N[C@@H]5C)n3C2CC2)C[C@@H]1N [Example 704, (2~{R},5~{S},7~{S})-14-[5-[(3~{S},4~{R})-3-amino-4-methoxy-piperidine-1-carbonyl]-1-cyclopropyl-7-fluoro-benzimidazol-2-yl]-7-fluoro-2-methyl-3,13,19-triazatetracyclo[11.5.2.0^ {5,7}.0^{16,20}]icosa-1(19), 14,16(20),17-tetraen-4-one] |
| 36 nM | CO[C@@H]1CCN(C(=O)c2cc3nc(-c4cc5ccc6nc5n4CCCCC[C@@H]4C[C@H]4C(=O)N[C@@H]6C)n([C@H]4C[C@H]4F)c3cc2F)C[C@@H]1N [Example 827, (2~{R},5~{R},7~{R})-14-[5-[(3~{S},4~{R})-3-amino-4-methoxy-piperidine-1-carbonyl]-6-fluoro-1-[(1~{S},2~{R})-2-fluorocyclopropyl]benzimidazol-2-yl]-2-methyl-3,13,19-triazatetracyclo[11.5.2.0^ {5,7}.0^{16,20}]icosa-1(19),14,16(20),17-tetraen-4-one] |
| 90 nM | C[C@H]1NC(=O)C(C)(C)CCCCCCn2c(-c3nc4cc(C(=O)N[C@H]5CNCC[C@@H]5F)c(F)c(F)c4n3C)cc3ccc1nc32 [Example 538, 6,7-difluoro-~{N}-[(3~ {S},4~{S})-4-fluoro-3-piperidyl]-1-methyl-2-[(11~{R})-8,8,11-trimethyl-9-oxo-1,10,19-triazatricyclo[10.5.2.0^ {15,18}]nonadeca-12(19),13,15(18),16-tetraen-17-yl]benzimidazole-5-carboxamide] |
| 82 nM | C[C@H]1NC(=O)C(C)(C)CCCCCCn2c(-c3nc4cc(C(=O)N[C@H]5CNCC[C@@H]5F)ccc4n3C3CC3)cc3ccc1nc32 [Example 376, 1-cyclopropyl-~{N}-[(3~{S},4~{S})-4-fluoro-3-piperidyl]-2-[(11~{R})-8,8,11-trimethyl-9-oxo-1,10,19-triazatricyclo[10.5.2.0^{15,18}]nonadeca-12(19),13,15(18),16-tetraen-17-yl]benzimidazole-5-carboxamide] |
| 525 nM | COc1cc(C(=O)N2CCC[C@@H](N)C2)cc2nc(-c3cc4ccc5nc4n3CCC3(CC3)COCCC(=O)N[C@@H]5C)c(C)n12 [Example 303, (11~{R})-17-[7-[(3~{R})-3-aminopiperidine-1-carbonyl]-5-methoxy-3-methyl-imidazo[1,2-a]pyridin-2-yl]-11-methyl-spiro[6-oxa-1,10,19-triazatricyclo[10.5.2.0^{15,18}]nonadeca-12(19),13,15(18),16-tetraene-4,1′-cyclopropane]-9-one] |
| 16 nM | COc1cc(C(=O)N2C[C@H](N)[C@@H]3CC[C@H]2C3)cc2nc(-c3cc4ccc5nc4n3CCCCCc3nccc(Cl)c3C(=O)N[C@@H]5C)n(C)c12 [Example 845, (2~{R})-17-[5-[(1~{S},4~{R}, 5~{R})-4-amino-2-azabicyclo [3.2.1]octane-2-carbonyl]-7-methoxy-1-methyl-benzimidazol-2-yl]-6-chloro-2-methyl-3,9,16,22-tetrazatetracyclo[14.5.2.0^ {5,10}.0^{19,23}]tricosa-1(22),5(10),6,8,17,19(23),20-heptaen-4-one] |
| 62 nM | COCCn1c(-c2cc3ccc4nc3n2CCCCCCC(C)(C)C(=O)N[C@@H]4C)nc2cc(C(=O)N[C@H]3CNCC[C@@H]3F)c(F)cc21 [Example 417, 6-fluoro-~{N}-[(3~{S},4~{S})-4-fluoro-3-piperidyl]-1-(2-methoxyethyl)-2-[(11~{R})-8,8,11-trimethyl-9-oxo-1,10,19-triazatricyclo[10.5.2.0^{15,18}]nonadeca-12(19),13,15(18),16-tetraen-17-yl]benzimidazole-5-carboxamide] |
| 130 nM | COc1cc(C(=O)N2C[C@H](N)[C@@H]3CC[C@H]2C3)cc2nc(-c3cc4ccc5nc4n3CC(F)(F)CCCC[C@](C)(C(F)(F)F)C(=O)N[C@@H]5C)n(C)c12 [Example 459, (8~{S},11~{R})-17-[5-[(1~{S},4~{R},5~{R})-4-amino-2-azabicyclo[3.2.1]octane-2-carbonyl]-7-methoxy-1-methyl-benzimidazol-2-yl]-3,3-difluoro-8,11-dimethyl-8-(trifluoromethyl)-1,10,19-triazatricyclo[10.5.2.0^{15,18}]nonadeca-12(19),13,15(18),16-tetraen-9-one] |
| 49 nM | COc1cc(C(=O)N[C@H]2CNCC[C@@H]2F)cc2nc(-c3cc4ccc5nc4n3CCCCC[C@H]3C[C@H]3C(=O)N[C@@H]5C)n(C)c12 [Example 518] |
| 40 nM | COc1cc(C(=O)N2[C@H]3CC[C@@H]2[C@H](N)C3)cc2nc(-c3cc4ccc5nc4n3CCCCCC[C@@H](C)C(=O)N[C@@H]5C)n(C)c12 [Example 136, (8~{R},11~{R})-17-[5-[(1~{R},2~{R},4~{S})-2-amino-7-azabicyclo[2.2.1]heptane-7-carbonyl]-7-methoxy-1-methyl-benzimidazol-2-yl]-8,11-dimethyl-1,10,19-triazatricyclo[10.5.2.0^{15,18}]nonadeca-12(19),13,15(18),16-tetraen-9-one] |
| 28 nM | COc1cc(C(=O)N2[C@H]3CC[C@@H]2[C@H](N)C3)cc2nc(-c3cc4ccc5nc4n3C[C@H]3C[C@H]3CC[C@@H]3C[C@H]3C(=O)N[C@@H]5C)n(C)c12 [Example 142, (3~{S),5~{R},8~{R},10~{R},13~{R})-19-[5-[(1~{R},2~{R},4~{S})-2-amino-7-azabicyclo[2.2.1]heptane-7-carbonyl]-7-methoxy-1-methyl-benzimidazol-2-yl]-13-methyl-1,12,21-triazapentacyclo[12.5.2.0^{3,5}.0^{8,10}.0^ {17,20}]henicosa-14(21),15,17(20),18-tetraen-11-one] |
| 850 nM | COc1cc(C(=O)N2C[C@H]3C[C@H]3[C@@H](N)C2)cc2nc(-c3cc4ccc5nc4n3CCCCCCC(C)(C)C(=O)N[C@@H]5C)n(C)c12 [Example 206, (11~{R})-17-[5-[(1~{S},5~{R},6~{R})-5-amino-3-azabicyclo[4.1.0]heptane-3-carbonyl]-7-methoxy-1-methyl-benzimidazol-2-yl]-8,8,11-trimethyl-1,10,19-triazatricyclo[10.5.2.0^{15,18}]nonadeca-12(19),13,15(18),16-tetraen-9-one] |
| 44 nM | COc1cc(C(=O)N2CC[C@@H](OC)[C@@H](N)C2)cc2nc(-c3cc4ccc5nc4n3CCCCCC[C@]3(CCCO3)C(=O)N[C@@H]5C)n(C)c12 [Example 686, (8~{S},11~{R})-17-[5-[(3~{S},4~{R})-3-amino-4-methoxy-piperidine-1-carbonyl]-7-methoxy-1-methyl-benzimidazol-2-yl]-11-methyl-spiro[1,10,19-triazatricyclo [10.5.2.0^{15,18}]nonadeca-12(19),13,15(18),16-tetraene-8,2′-tetrahydrofuran]-9-one] |
| 43 nM | CO[C@H]1C[C@@H]1n1c(-c2cc3ccc4nc3n2CC(F)(F)CCC[C@@H]2C[C@H]2C(=O)N[C@@H]4C)nc2cc(C(=O)N3C[C@H](N)[C@@H]4CC[C@H]3C4)cc(F)c21 [Example 470, (2~{R},5~{R},7~{R})-14-[5-[(1~{S},4~{R},5~{R})-4-amino-2-azabicyclo[3.2.1]octane-2-carbonyl]-7-fluoro-1-[(1~{S},2~{S})-2-methoxycyclopropyl]benzimidazol-2-yl]-11,11-difluoro-2-methyl-3,13,19-triazatetracyclo[11.5.2.0^{5,7}.0^{16,20}] icosa-1(18),14,16,19-tetraen-4-one] |
